# Data as given in ChEMBL document CHEMBL1201862, “PubChem BioAssay data set” (2004).
# Structures can show the parent of a compound that is named as a salt. Active and inactive are the calls of the source.
# Legend:
# Vero = experiment: cells; assay type: functional; conditions: Chlorocebus sabaeus
# Coagulation factor XII = biological target: T1, Coagulation factor XII (Homo sapiens, UniProt P00748); assay type: functional;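 also: activated factor XIIa alpha cleaving a fluorogenic AMC peptide substrate; inhibitor potency from loss of enzyme activity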
# T1 sequence (P00748 whole entry): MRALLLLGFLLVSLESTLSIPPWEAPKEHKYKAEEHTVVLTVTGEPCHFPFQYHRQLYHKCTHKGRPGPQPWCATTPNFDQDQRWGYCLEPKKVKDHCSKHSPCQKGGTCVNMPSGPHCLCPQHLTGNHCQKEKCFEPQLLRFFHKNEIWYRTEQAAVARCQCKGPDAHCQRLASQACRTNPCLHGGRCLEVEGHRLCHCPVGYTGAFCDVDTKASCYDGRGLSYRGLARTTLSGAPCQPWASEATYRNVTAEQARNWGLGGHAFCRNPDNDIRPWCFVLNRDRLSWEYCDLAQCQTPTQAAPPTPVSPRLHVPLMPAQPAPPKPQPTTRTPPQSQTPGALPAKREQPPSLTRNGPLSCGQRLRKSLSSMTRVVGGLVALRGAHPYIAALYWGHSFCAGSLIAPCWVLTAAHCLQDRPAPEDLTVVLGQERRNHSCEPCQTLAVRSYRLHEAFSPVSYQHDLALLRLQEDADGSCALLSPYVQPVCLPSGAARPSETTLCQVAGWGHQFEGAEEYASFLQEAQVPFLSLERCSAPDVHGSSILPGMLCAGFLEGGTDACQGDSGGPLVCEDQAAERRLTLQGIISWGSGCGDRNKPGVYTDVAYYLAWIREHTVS
# cells = assay type: functional
# Cytochrome P450 1A2 = biological target: T2, Cytochrome P450 1A2 (Homo sapiens, UniProt P05177);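 also: PubChem cytochrome P450 panel assay, CYP1A2 panel member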
# T2 sequence (P05177 whole entry): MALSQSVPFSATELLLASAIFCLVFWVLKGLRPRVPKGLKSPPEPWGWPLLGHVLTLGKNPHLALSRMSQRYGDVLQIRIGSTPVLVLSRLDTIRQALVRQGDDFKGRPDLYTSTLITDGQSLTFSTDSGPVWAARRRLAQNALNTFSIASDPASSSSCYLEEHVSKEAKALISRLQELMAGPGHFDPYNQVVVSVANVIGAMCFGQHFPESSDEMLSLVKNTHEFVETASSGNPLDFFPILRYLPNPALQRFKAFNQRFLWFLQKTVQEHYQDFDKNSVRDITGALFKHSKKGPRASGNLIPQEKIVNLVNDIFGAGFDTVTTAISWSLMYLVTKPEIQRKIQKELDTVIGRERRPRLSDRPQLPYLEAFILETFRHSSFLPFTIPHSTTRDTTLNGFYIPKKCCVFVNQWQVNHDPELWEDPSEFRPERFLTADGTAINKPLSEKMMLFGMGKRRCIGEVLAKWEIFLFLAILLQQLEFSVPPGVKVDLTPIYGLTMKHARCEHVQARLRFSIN
# Cytochrome P450 3A4 = Cytochrome P450 3A4 (Homo sapiens, UniProt P08684);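 also: CYP3A4 tested as one member of a cytochrome P450 panel screen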
# Sequence of Cytochrome P450 3A4 (P08684 whole entry): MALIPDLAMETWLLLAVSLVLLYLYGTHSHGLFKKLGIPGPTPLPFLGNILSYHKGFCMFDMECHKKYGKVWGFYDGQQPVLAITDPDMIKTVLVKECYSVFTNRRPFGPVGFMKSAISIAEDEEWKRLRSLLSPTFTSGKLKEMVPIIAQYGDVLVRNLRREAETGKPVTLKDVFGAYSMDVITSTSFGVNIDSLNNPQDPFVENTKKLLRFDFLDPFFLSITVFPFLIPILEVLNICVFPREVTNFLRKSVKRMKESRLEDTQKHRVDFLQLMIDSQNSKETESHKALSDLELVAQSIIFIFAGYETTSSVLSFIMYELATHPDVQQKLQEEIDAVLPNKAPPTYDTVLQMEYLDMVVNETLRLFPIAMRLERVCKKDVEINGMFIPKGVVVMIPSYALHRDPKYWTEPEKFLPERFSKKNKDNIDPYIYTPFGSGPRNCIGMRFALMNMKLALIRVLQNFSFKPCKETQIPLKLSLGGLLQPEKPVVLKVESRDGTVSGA
# [1] = biological target: T3, Short transient receptor potential channel 4 (Mus musculus, UniProt Q9QUQ5); experiment: block of DAMGO-driven TRPC4 calcium entry – cell-based, HEK293 TRPC4/mu-opioid, Fluo-4 calcium, dose response (AID 434942); assay type: functional;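 also: potency of inhibitors blocking the TRPC4 calcium response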
# T3 sequence (Q9QUQ5 whole entry): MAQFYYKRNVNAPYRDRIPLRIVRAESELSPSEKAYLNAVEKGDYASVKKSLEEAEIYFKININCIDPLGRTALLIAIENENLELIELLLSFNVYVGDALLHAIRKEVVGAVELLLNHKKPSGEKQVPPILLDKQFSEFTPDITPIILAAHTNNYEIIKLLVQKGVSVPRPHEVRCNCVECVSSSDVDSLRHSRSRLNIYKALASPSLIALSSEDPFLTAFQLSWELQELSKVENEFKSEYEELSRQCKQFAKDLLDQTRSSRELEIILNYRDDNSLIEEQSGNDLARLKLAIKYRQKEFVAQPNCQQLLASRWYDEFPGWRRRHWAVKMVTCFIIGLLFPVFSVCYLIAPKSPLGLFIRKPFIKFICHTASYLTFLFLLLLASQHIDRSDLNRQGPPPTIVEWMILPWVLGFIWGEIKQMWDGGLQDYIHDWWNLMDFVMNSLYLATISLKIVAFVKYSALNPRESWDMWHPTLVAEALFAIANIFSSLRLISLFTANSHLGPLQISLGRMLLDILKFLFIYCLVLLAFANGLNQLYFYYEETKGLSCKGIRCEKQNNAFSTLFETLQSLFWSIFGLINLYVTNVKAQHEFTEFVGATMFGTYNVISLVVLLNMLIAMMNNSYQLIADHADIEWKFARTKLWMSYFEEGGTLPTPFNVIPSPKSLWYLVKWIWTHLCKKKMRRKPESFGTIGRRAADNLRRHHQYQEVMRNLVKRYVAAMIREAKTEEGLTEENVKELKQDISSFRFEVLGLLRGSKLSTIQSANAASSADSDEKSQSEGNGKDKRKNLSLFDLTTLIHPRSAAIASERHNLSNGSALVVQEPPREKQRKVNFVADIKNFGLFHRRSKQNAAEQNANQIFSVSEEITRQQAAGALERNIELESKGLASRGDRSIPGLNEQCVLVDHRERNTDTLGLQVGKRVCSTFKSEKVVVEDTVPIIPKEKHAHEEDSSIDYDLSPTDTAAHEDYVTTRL
# [2] = biological target: T4, High affinity choline transporter 1 (Homo sapiens, UniProt Q9GZV3); experiment: human choline transporter blockers, potency – cell-based, 5-point CRC, membrane potential dye, dose response (AID 504840); assay type: functional
# T4 sequence (Q9GZV3 whole entry): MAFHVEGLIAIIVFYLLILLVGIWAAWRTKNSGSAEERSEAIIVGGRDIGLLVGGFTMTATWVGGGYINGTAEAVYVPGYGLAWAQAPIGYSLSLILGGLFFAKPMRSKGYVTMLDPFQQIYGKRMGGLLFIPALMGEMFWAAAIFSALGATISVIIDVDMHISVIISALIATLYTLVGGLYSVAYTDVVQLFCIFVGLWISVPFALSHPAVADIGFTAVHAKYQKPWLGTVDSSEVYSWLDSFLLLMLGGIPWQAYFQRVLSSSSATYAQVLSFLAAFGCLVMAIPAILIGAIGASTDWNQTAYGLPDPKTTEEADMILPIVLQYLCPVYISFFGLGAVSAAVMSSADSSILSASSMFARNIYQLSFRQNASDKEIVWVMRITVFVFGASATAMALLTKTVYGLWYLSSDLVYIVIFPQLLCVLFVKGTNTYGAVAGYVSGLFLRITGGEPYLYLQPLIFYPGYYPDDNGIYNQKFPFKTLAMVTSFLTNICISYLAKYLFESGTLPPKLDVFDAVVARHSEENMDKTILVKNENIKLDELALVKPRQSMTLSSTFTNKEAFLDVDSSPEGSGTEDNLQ
# [3] = biological target: T5, Endoribonuclease toxin MazF (Escherichia coli K-12, UniProt P0AE70); experiment: activation of MazEF endoribonuclease cleavage – biochemical, fluorescence, single-stranded RNA substrate, uHTS hits, dose response (AID 588481); assay type: functional
# T5 sequence (P0AE70 whole entry): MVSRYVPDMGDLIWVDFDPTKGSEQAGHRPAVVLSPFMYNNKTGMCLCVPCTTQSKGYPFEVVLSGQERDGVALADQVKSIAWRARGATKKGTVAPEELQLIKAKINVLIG
# [4] = biological target: T5, Endoribonuclease toxin MazF; experiment: substrate-only fluorescence increase artefacts – biochemical, single-stranded RNase substrate, counter-screen for MazEF activator project, dose response (AID 588502); assay type: functional
# [5] = biological target: T6, Carboxy-terminal domain RNA polymerase II polypeptide A small phosphatase 1 (Homo sapiens, UniProt Q9GZU7); experiment: CTDSP1 inhibitors, concentration-response, biochemical, absorbance readout, ultra-high-throughput screen actives (AID 540297); assay type: functional
# T6 sequence (Q9GZU7 whole entry): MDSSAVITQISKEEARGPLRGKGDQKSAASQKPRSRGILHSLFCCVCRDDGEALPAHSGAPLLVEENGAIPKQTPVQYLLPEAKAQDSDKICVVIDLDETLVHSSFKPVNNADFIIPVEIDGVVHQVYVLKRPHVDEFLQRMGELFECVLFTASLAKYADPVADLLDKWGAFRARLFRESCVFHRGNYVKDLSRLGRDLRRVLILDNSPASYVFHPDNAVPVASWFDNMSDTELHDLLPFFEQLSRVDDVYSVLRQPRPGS
# [6] = microbe, parasite or virus in culture; assay type: functional; conditions: Mycobacterium tuberculosis
# [7] = THP-1 cell cytotoxicity, dose response, cytotoxicity control for non-replicating M. tuberculosis project (AID 489025); assay type: functional
# [8] = Vero E6 cell cytotoxicity, dose response, cytotoxicity control for non-replicating M. tuberculosis project, secondary assay (AID 492998); assay type: functional, VeroE6; conditions: Vero C1008
# HEK293 [9] = experiment: inhibition of NOD1-driven NF-kB reporter – cell-based, luminescence, uHTS, primary screen (AID 1578); assay type: functional; conditions: Homo sapiens
# BJ [10] = experiment: BJ-TERT fibroblast viability loss – cell-based, RAS-independent, luminescence, dose response (AID 1933); assay type: functional; conditions: Homo sapiens
# HEK293 [11] = experiment: cells; assay type: functional, cell-based; conditions: Homo sapiens
# BJ [12] = experiment: cells; assay type: functional, cell-based; conditions: Homo sapiens
# HEK293 [13] = experiment: cells; assay type: functional, cell-based; conditions: Homo sapiens; remark: listed apart in the source
# [14] = biological target: Nucleotide-binding oligomerization domain-containing protein 2 (Homo sapiens, UniProt Q9HC29); experiment: inhibition of NOD2-driven NF-kB reporter – cell-based, luminescence, uHTS, HEK293 (AID 1566); assay type: functional
# Sequence of Nucleotide-binding oligomerization domain-containing protein 2 (Q9HC29 whole entry, the tested form may be a part): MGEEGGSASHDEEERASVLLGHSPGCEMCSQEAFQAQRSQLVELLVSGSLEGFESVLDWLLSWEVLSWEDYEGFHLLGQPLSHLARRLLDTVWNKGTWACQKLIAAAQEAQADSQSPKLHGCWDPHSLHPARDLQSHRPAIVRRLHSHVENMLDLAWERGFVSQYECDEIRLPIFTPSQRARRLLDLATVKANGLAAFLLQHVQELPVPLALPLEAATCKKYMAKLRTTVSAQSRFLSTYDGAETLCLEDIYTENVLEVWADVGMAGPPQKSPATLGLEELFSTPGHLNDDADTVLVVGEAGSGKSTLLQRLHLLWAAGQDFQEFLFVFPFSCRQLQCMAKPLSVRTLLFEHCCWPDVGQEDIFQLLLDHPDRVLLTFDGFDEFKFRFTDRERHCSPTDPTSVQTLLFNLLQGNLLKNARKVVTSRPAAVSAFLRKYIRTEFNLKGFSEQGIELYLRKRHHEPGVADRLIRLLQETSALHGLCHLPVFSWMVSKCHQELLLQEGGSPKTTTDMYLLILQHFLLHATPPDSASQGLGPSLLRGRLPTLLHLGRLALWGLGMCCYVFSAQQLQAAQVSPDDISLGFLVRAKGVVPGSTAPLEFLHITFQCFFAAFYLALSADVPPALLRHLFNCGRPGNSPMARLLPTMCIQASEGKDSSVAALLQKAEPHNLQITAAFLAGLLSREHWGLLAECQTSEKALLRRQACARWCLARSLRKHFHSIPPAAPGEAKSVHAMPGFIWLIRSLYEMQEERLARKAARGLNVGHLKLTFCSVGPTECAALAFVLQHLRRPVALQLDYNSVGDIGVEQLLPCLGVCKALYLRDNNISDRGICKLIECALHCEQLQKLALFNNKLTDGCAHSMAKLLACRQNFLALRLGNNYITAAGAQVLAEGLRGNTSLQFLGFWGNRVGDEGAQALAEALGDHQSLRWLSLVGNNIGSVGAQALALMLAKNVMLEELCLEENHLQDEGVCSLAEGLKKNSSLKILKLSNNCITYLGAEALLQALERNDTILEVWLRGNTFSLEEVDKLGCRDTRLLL
# HEK293 [15] = experiment: NOD2 signaling inhibitors in MDP-stimulated cells, cell-based, uHTS, luminescence (AID 2001); assay type: functional; conditions: Homo sapiens
# HEK293 [16] = experiment: cells; assay type: functional, cell-based; conditions: Homo sapiens; remark: listed apart in the source
# BJ [17] = experiment: BJ-TERT-LT-ST fibroblast viability loss – cell-based, RAS-independent, luminescence, dose response (AID 1935); assay type: functional; conditions: Homo sapiens;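 also: BJ fibroblasts immortalized with TERT plus LT and ST oncogenes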
# [18] = DRD fibroblast viability loss – cell-based, non-viral oncogenic, luminescence, dose response (AID 1934); assay type: functional; conditions: Homo sapiens
# [19] = Trypanosoma cruzi growth suppression in host cells – NIH3T3 host cells, beta-gal luminescence, confirmation (AID 2044); assay type: functional, cell-based;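 also: intracellular parasites grown in NIH/3T3 mouse fibroblasts as host cells; luminescent beta-galactosidase reporter signal from transgenic T. cruzi replicating inside host cells; inhibitors lower the luminescence signal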
# [20] = NIH3T3 cell viability loss – ATP luminescence, mouse fibroblasts, counter-screen, dose response (AID 2010); assay type: functional, cell-based;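 also: cells exposed to compound for about 90 hours before reading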
# INS1 = experiment: INS-1E survival protection against cytokine death – cell-based, luminescence, retest, dose response (AID 449756); assay type: functional; conditions: Rattus norvegicus;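 also: cell death triggered by IL-1 beta plus TNF-alpha plus IFN-gamma mixture; protective hits raise ATP signal compared with cytokine alone wells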
# [21] = biological target: DNA dC->dU-editing enzyme APOBEC-3A (Homo sapiens, UniProt P31941); experiment: Dose Response confirmation of small molecule APOBEC3A DNA Deaminase Inhibitors via a fluorescence-based single-stranded DNA deaminase assay. [Related pubchem assays (depositor defined):AID493011, AID493024]; assay type: functional
# Sequence of DNA dC->dU-editing enzyme APOBEC-3A (P31941 whole entry): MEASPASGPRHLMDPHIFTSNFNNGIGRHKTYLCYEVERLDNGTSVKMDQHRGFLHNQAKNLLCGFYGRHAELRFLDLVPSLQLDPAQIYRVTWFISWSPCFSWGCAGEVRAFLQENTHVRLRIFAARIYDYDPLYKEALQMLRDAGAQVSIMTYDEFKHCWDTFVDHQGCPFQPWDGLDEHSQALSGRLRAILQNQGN
# [22] = biological target: DNA dC->dU-editing enzyme APOBEC-3G (Homo sapiens, UniProt Q9HC16); assay type: functional;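 also: Dose-response counterscreen measuring inhibition of APOBEC3G DNA deaminase activity, run while confirming APOBEC3A inhibitors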
# Sequence of DNA dC->dU-editing enzyme APOBEC-3G (Q9HC16 whole entry): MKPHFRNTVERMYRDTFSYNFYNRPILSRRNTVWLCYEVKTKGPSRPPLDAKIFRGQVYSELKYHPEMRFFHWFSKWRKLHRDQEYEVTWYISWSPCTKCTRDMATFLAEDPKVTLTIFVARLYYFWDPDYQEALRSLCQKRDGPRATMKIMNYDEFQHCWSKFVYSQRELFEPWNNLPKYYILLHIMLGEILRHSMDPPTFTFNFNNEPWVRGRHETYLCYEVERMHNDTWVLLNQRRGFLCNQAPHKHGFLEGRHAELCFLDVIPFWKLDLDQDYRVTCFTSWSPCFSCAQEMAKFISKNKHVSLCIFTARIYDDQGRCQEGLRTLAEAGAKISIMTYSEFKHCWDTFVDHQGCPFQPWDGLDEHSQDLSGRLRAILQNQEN
smiles,measurement,setting,value
O=C(O)c1nn(CCOc2c(Cl)cccc2Cl)c(=O)c2ccccc12,CC50,Vero,> 25 µM (active)
O=[N+]([O-])c1cncc([N+](=O)[O-])c1Nc1ccccc1Cl,IC50,Coagulation factor XII,> 50 µM (inactive)
same,IC50,cells,8.86 µM (active)
O=C(Nc1ccccc1)N1CCC2(CC1)CCN(C(=O)c1cccc(F)c1)CC2,AC50,Cytochrome P450 1A2,10 µM (inconclusive)
same,AC50,Cytochrome P450 3A4,inconclusive
COc1ccccc1CC(Cc1nc2ccccc2[nH]1)c1nc2ccccc2[nH]1 (configuration not stated),EC50,[1],3.35 µM (active)
same,IC50,[2],13.8 µM (active)
O=C(Nc1cccc2ccccc12)N1CC=C(c2ccccc2)CC1,EC50,[3],53.7 µM (inactive)
same,EC50,[4],> 99 µM (inactive)
Cn1cccc1C(=O)N1CCC2(CC1)CCN(C(c1ccccc1)c1ccccc1)CC2,AC50,Cytochrome P450 1A2,5.01 µM (inconclusive)
same,AC50,Cytochrome P450 3A4,inconclusive
O=c1c(-c2ccc(Cl)cc2)nc2cnc(N3CCOCC3)nc2n1CCc1ccccc1,AC50,Cytochrome P450 1A2,2 µM (inconclusive)
same,AC50,Cytochrome P450 3A4,inconclusive
COC(=O)c1ccc(Nc2nc(C)cc(=O)[nH]2)cc1,IC50,Coagulation factor XII,> 50 µM (inactive)
O=C(Nc1ccccc1Cl)C1CC(=O)N(c2ccccc2)C1 (configuration not stated),IC50,Coagulation factor XII,> 50 µM (inactive)
N#Cc1cccc(NC(=O)N2CCC3(CC2)CCN(C(=O)c2cccc(F)c2)CC3)c1,AC50,Cytochrome P450 3A4,inconclusive
CC1CN(C2=CC(=[N+]3CCOCC3)CC(C)(C)C2)CC(C)O1 (configuration not stated),IC50,[5],1.83 µM (active)
CCCCn1c(=O)c(C(=O)Nc2ncccc2C)c(O)c2ccccc21,CC50,[6],29.3 µM (active)
same,CC50,[7],> 40 µM (active)
same,CC50,[8],> 20 µM (active)
same,IC50,cells,17.3 µM (active)
COc1ccc2c(c1)CCc1c(C(=O)NCc3ccc(F)cc3)noc1-2,IC50,Coagulation factor XII,3.61 µM (active)
COc1cc(/C=C/c2ccc3cccc(O)c3n2)cc(Cl)c1OC,EC50,HEK293 [9],3.66 µM (active)
same,EC50,BJ [10],23.4 µM (active)
same,IC50,HEK293 [11],9.42 µM (active)
same,EC50,BJ [12],44.9 µM (active)
same,IC50,HEK293 [13],> 20 µM (inactive)
same,EC50,[14],> 20 µM (inactive)
same,IC50,HEK293 [15],4.22 µM (inactive)
same,IC50,HEK293 [16],> 20 µM (inactive)
same,EC50,BJ [17],> 150 µM (not active)
same,EC50,[18],19.1 µM (active)
same,CC50,Vero,11.6 µM (active)
O=C(Nc1ccc(S(=O)(=O)Nc2nccs2)cc1)c1nn(-c2ccccc2)ccc1=O,IC50,[5],3.52 µM (active)
Cc1cc(C(=O)N/N=C/c2ccc(-c3ccccc3Cl)o2)[nH]n1,EC50,[19],1.5 µM (active)
same,EC50,[20],> 60 µM (not active)
same,IC50,[5],11.5 µM (active)
COc1ccc(C2=Nn3c(nnc3-c3ccccc3Cl)SC2)cc1OC1CCCC1,AC50,INS1,42.7 µM (active)
same,CC50,Vero,10.7 µM (active)
COc1ccc(CN2CCNCC2)c(OC)c1OC [TRIMETAZIDINE DIHYDROCHLORIDE],IC50,[21],8.26 µM (active)
same,IC50,[22],7.19 µM (active)
same,IC50,[5],8.85 µM (active)
